How the values were obtained:
[1] = test system: T1, Receptor-type tyrosine-protein kinase FLT3 (Homo sapiens), P36888 [D835Y]; assay: Inhibition of human FLT3 D835Y mutant catalytic domain expressed in baculovirus assessed as substrate phosphorylation using fluorescence-labelled peptides as substrate at 8 uM after 90 mins by microfluidic peptide phosphorylation assay
T1 sequence (whole entry): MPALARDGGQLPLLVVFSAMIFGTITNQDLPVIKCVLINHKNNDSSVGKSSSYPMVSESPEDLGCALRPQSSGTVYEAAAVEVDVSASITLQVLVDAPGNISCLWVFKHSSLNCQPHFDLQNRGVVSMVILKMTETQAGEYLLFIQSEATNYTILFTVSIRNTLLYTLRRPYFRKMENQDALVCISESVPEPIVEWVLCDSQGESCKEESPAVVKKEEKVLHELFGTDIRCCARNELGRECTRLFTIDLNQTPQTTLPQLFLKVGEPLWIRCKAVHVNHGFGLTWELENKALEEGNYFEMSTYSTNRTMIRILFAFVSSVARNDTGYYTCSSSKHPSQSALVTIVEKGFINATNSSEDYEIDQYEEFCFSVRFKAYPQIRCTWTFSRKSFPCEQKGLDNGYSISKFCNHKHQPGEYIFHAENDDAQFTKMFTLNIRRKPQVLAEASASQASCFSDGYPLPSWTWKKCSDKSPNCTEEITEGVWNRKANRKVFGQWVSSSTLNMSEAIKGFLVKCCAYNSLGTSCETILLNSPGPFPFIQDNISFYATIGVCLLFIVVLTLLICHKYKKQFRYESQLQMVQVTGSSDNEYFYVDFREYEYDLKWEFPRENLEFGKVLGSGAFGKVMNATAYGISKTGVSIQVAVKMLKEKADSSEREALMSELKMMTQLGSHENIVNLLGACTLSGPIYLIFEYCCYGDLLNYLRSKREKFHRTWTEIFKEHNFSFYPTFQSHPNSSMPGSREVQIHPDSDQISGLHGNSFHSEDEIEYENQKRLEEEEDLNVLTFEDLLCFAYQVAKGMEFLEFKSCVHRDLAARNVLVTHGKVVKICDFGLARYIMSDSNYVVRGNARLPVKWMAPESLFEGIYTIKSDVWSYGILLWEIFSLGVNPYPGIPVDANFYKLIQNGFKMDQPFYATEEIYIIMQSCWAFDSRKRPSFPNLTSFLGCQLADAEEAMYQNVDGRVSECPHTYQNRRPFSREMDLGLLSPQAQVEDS

[2] = target: Protein kinase C eta type (Homo sapiens) (UniProt P24723); assay: Inhibition of human truncated PKC eta expressed in baculovirus assessed as substrate phosphorylation using fluorescence-labelled peptides as substrate at 0.06 uM after 90 mins by microfluidic peptide phosphorylation assay
[3] = target: Tyrosine-protein kinase HCK (Homo sapiens) (UniProt P08631); assay: Inhibition of human HCK catalytic domain expressed in baculovirus assessed as substrate phosphorylation using fluorescence-labelled peptides as substrate at 0.06 uM after 90 mins by microfluidic peptide phosphorylation assay
[4] = target: Tyrosine-protein kinase HCK (Homo sapiens) (UniProt P08631); assay: Inhibition of human HCK catalytic domain expressed in baculovirus assessed as substrate phosphorylation using fluorescence-labelled peptides as substrate at 0.2 uM after 90 mins by microfluidic peptide phosphorylation assay
[5] = target: Insulin-like growth factor 1 receptor (Homo sapiens) (UniProt P08069); assay: Inhibition of human IGF1R catalytic domain expressed in baculovirus assessed as substrate phosphorylation using fluorescence-labelled peptides as substrate at 0.2 uM after 90 mins by microfluidic peptide phosphorylation assay
[6] = target: Mitogen-activated protein kinase 3 (Homo sapiens) (UniProt P27361); assay: Inhibition of human full length ERK1 expressed in Escherichia coli cell assessed as substrate phosphorylation using fluorescence-labelled peptides as substrate at 0.2 uM after 90 mins by microfluidic peptide phosphorylation assay
[7] = target: Tyrosine-protein kinase ABL1 (Homo sapiens) (UniProt P00519); assay: Inhibition of human full-length ABL expressed in baculovirus assessed as substrate phosphorylation using fluorescence-labelled peptides as substrate at 2 uM after 90 mins by microfluidic peptide phosphorylation assay
[8] = target: T2, Serine/threonine-protein kinase Chk1 (Homo sapiens) (UniProt O14757); assay: Inhibition of human full length CHK1 expressed in baculovirus assessed as substrate phosphorylation using fluorescence-labelled peptides as substrate at 2 uM after 90 mins by microfluidic peptide phosphorylation assay
T2 sequence (whole entry): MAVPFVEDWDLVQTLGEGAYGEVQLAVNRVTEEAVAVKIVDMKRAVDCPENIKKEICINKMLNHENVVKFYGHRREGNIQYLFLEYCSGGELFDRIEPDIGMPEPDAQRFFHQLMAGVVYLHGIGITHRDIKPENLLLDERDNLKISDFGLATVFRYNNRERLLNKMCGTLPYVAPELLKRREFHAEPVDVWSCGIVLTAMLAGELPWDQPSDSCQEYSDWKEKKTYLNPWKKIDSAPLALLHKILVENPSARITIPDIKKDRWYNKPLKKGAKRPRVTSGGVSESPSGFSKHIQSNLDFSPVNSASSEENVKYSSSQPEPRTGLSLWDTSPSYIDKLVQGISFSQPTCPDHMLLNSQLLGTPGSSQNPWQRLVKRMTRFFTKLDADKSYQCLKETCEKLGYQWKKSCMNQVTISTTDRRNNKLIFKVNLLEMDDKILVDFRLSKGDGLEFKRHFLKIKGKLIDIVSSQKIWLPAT

[9] = target: T3, Testis-specific serine/threonine-protein kinase 2 (Homo sapiens) (UniProt Q96PF2); assay: Inhibition of human full length TSSK2 expressed in baculovirus assessed as substrate phosphorylation using fluorescence-labelled peptides as substrate at 1000 uM after 90 mins by microfluidic peptide phosphorylation assay
T3 sequence (whole entry): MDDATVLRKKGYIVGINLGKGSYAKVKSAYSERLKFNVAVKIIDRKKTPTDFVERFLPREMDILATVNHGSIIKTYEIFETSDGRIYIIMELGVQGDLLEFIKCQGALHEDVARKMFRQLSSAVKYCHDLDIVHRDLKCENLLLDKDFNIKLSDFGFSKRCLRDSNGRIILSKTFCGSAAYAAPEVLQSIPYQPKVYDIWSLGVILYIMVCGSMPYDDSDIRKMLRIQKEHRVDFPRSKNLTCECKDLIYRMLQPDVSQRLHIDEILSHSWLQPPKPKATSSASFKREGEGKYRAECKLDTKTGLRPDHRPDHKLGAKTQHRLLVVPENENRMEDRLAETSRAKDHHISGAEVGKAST

[10] = target: T3, Testis-specific serine/threonine-protein kinase 2 (Homo sapiens); assay: Inhibition of human full length TSSK2 expressed in baculovirus assessed as substrate phosphorylation using fluorescence-labelled peptides as substrate at 70 uM after 90 mins by microfluidic peptide phosphorylation assay
[11] = target: Mitogen-activated protein kinase kinase kinase kinase 4 (Homo sapiens) (UniProt O95819); assay: Inhibition of human HGK catalytic domain expressed in baculovirus assessed as substrate phosphorylation using fluorescence-labelled peptides as substrate at 420 uM after 90 mins by microfluidic peptide phosphorylation assay
[12] = target: Ribosomal protein S6 kinase alpha-4 (Homo sapiens) (UniProt O75676); assay: Inhibition of human full length MSK2 expressed in baculovirus assessed as substrate phosphorylation using fluorescence-labelled peptides as substrate at 420 uM after 90 mins by microfluidic peptide phosphorylation assay
Ribosomal protein S6 kinase alpha-4 (Homo sapiens), sequence (O75676 whole entry, looked up): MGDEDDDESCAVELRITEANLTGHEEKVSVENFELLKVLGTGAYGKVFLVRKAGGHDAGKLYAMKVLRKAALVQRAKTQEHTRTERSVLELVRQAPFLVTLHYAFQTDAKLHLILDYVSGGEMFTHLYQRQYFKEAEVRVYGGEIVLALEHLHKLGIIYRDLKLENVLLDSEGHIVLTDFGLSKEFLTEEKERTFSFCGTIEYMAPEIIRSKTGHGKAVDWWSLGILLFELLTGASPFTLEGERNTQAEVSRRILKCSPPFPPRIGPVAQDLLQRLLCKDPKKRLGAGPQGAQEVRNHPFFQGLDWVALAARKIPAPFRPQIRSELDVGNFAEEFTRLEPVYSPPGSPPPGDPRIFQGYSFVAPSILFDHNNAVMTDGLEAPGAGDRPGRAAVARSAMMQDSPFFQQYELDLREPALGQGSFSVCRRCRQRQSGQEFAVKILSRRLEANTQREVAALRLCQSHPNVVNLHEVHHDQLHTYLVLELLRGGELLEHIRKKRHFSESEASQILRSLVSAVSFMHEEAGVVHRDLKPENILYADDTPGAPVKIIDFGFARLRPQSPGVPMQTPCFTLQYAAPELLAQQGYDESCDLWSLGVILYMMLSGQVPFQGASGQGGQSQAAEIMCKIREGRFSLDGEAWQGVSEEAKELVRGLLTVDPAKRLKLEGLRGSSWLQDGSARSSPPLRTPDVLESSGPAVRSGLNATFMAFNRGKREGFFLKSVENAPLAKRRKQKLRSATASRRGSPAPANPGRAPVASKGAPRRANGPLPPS

Tyrosine-protein kinase HCK (Homo sapiens), sequence (P08631 2-526 limits assumed): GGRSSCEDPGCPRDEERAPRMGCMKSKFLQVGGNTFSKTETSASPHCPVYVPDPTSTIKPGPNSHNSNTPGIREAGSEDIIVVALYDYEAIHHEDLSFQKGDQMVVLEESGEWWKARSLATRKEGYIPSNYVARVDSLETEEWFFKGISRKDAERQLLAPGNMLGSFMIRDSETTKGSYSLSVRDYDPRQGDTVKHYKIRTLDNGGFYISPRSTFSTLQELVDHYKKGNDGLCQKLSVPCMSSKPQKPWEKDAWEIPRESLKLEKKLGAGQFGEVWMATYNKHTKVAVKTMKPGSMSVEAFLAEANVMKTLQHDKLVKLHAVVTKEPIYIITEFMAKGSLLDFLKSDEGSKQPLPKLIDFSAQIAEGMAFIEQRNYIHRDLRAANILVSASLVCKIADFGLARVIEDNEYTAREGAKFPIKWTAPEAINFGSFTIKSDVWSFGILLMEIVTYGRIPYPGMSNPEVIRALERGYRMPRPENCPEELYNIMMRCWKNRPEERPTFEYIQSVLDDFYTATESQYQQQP
Mitogen-activated protein kinase 3 (Homo sapiens), sequence (P27361 whole entry): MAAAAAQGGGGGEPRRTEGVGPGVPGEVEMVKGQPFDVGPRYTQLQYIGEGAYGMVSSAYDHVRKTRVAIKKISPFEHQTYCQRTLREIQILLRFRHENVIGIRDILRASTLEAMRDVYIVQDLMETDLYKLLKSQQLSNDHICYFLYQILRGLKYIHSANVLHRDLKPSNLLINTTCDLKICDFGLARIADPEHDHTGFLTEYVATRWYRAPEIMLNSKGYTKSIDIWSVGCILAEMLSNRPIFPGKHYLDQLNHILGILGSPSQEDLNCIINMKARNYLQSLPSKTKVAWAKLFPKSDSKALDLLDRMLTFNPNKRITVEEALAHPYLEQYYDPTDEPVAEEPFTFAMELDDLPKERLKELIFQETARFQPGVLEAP
Tyrosine-protein kinase ABL1 (Homo sapiens), sequence (P00519 whole entry): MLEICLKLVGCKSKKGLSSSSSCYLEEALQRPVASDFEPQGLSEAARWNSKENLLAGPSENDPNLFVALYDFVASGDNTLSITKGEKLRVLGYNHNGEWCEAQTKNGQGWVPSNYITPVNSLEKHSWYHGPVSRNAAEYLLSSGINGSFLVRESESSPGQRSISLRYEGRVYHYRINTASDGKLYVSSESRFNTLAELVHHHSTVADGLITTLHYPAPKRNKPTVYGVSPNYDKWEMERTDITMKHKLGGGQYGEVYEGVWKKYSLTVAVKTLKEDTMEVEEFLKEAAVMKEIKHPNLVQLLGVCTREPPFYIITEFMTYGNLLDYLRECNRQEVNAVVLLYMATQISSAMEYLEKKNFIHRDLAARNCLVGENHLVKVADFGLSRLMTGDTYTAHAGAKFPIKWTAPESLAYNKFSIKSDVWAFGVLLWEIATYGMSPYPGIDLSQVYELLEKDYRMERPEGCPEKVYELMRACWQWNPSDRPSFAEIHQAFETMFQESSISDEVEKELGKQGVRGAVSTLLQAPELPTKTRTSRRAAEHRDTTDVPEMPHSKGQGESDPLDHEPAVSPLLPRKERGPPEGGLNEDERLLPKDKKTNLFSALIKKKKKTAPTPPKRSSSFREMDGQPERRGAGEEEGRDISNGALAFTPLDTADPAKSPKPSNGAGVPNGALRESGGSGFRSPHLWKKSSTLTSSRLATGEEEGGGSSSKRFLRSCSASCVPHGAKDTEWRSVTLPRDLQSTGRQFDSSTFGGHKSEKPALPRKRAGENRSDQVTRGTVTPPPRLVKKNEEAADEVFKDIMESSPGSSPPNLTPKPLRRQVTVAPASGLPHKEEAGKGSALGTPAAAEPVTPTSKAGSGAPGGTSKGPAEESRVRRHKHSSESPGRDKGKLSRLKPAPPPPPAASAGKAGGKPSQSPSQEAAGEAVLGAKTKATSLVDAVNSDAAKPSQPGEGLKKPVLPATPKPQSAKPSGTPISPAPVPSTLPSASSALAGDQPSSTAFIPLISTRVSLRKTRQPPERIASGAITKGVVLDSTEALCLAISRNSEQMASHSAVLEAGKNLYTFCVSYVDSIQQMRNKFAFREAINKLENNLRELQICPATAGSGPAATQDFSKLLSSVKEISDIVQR
Mitogen-activated protein kinase kinase kinase kinase 4 (Homo sapiens), sequence (O95819 2-1239 limits assumed): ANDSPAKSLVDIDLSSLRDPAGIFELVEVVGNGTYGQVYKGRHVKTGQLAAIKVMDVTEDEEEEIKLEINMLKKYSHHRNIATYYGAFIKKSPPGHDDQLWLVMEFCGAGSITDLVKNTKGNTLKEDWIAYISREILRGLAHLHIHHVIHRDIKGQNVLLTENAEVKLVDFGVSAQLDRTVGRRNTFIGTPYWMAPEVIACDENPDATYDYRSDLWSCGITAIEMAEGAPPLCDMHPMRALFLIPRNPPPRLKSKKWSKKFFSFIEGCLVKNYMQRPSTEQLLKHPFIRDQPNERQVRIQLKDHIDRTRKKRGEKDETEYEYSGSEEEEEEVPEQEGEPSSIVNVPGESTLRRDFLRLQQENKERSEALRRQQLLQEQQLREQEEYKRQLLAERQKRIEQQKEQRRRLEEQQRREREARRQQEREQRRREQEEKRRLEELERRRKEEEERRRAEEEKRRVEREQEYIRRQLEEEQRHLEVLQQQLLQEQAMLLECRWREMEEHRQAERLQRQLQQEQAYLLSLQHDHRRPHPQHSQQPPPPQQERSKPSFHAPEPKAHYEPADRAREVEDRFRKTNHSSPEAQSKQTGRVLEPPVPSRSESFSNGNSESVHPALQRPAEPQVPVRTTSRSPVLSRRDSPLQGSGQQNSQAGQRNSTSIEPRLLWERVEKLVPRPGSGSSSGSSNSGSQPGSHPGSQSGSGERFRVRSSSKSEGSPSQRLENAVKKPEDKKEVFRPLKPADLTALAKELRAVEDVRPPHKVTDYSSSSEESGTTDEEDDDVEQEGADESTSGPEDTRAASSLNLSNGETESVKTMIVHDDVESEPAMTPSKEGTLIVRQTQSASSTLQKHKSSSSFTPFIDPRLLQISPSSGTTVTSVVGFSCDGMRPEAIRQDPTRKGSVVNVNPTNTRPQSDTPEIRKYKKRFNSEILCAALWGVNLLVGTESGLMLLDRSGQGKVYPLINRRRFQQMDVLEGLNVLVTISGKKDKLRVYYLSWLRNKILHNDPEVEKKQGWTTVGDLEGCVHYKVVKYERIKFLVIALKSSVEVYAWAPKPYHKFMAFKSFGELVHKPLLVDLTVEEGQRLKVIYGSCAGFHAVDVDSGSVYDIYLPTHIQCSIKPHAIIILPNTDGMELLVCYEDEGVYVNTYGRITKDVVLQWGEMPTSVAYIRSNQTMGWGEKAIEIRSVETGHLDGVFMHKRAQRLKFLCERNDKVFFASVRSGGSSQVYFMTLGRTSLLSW
Protein kinase C eta type (Homo sapiens), sequence (P24723 whole entry, the tested form may be a part): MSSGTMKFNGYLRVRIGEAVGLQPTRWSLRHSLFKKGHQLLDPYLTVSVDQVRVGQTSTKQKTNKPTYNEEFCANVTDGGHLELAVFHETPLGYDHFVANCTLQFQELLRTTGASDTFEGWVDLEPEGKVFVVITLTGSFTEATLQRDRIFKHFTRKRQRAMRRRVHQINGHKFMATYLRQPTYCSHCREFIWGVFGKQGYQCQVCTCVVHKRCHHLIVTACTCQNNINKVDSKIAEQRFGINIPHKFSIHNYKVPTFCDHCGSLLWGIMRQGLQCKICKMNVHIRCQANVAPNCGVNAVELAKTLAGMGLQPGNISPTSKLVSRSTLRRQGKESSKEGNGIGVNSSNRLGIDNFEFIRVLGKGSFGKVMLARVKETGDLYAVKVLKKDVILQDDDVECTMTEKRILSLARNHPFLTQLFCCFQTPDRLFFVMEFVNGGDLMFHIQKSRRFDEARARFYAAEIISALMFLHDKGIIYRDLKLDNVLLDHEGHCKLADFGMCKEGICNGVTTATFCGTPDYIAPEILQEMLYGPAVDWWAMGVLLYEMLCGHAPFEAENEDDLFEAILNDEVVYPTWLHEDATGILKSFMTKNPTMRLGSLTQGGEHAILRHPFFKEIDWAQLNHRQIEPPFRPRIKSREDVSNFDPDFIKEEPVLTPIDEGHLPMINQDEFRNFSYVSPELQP

NCC1CCN(c2ncnc3[nH]ccc23)CC1
inhibition [1]: 4.5%

NC1(Cc2ccc(Cl)cc2)CCN(c2ncnc3[nH]ccc23)CC1
inhibition [2]: 51% | inhibition [3]: 7%

Clc1ccc(C2(c3ccc(-c4ncnc5[nH]cnc45)cc3)CCNCC2)cc1
inhibition [4]: 35% | inhibition [5]: 5% | inhibition [6]: 6%

NC1CCN(c2ncnc3[nH]ccc23)CC1
inhibition [7]: 13.5% | inhibition [8]: 1.5%

c1cnc2[nH]ccc2c1
inhibition [9]: 37%

CNCc1ccc(-c2ncnc3[nH]cnc23)cc1
inhibition [10]: 10%

c1nc(N2CCOCC2)c2nc[nH]c2n1
inhibition [11]: 78.5% | inhibition [12]: 76%

— ChEMBL document CHEMBL3132769, “Fragment growing to retain or alter the selectivity of anchored kinase hinge-binding fragments” (Medchemcomm, 2014)
